Experimental findings from US20190070140A1, “COMPOSITION COMPRISING PROTECTIN DX AS ACTIVE INGREDIENT FOR PREVENTING OR TREATING HYPERLIPIDEMIA OR FATTY LIVER DISEASE” (Solvit P&F, priority 2017, published 2019) are described below.

Type in all cases: in vivo, mouse
The subject of one assay is ORP150. Put plainly: Western-blot assay of ORP150 expression in livers of HFD mice. The note with it: PDX i.p. 1 μg/mice/day for 8 weeks, FIG. 5D. Here is the method:
(§1) The present study has received the approval of the Institutional Animal Review Committee (Institutional Animal Care and Use Committee in Korea University, Seoul, Korea). The animal experiment was conducted according to the Guide for Care and Use of Laboratory Animals (NH publication, 8th Ed., 2011). A control group and a group of male C57BL/6J(B6) mice at 8 weeks of age were subjected to a normal diet (ND, Brogaarden, Gentofte, Denmark) and a high fat diet (HFD, Research Diets, New Brunswick, N.J., USA) for 8 weeks, respectively. The HFD (high fat diet) group was provided with intra-peritoneal injection of PDX for 8 weeks (1 μg/mice/day). An ethanol injection group was used as a control group. […] A protein sample (35 μg) was applied to 12% SDS-PAGE, transferred to a nitrocellulose film (Amersham Bioscience, Westborough, Mass., USA), detected with a primary antibody, followed by probing with a secondary antibody and another secondary antibody conjugated with horseradish […] (Santa Cruz Biotechnology). The sample was detected by ECL kit. The present inventors have assessed PDX effects upon lipid accumulation in a mouse. For this purpose, a liver cut section from a mouse was subjected to histological assay and western-blot assay through H&E staining and Oil-Red-O staining, while TG accumulation was measured using a TG analysis kit.

In the next assay the test system is adiponectin. Put plainly: Adiponectin level in blood serum of HFD mice. Conditions: PDX i.p. 1 μg/mice/day for 8 weeks, FIG. 5E. The protocol: The present study has received the approval of the Institutional Animal Review Committee (Institutional Animal Care and Use Committee in Korea University, Seoul, Korea). The animal experiment was conducted according to the Guide for Care and Use of Laboratory Animals (NH publication, 8th Ed., 2011). A control group and a group of male C57BL/6J(B6) mice at 8 weeks of age were subjected to a normal diet (ND, Brogaarden, Gentofte, Denmark) and a high fat diet (HFD, Research Diets, New Brunswick, N.J., USA) for 8 weeks, respectively. The HFD (high fat diet) group was provided with intra-peritoneal injection of PDX for 8 weeks (1 μg/mice/day). An ethanol injection group was used as a control group.

In the next assay the test system is IRE-1, eIF2α and CHOP. Put plainly: Western-blot assay of ER stress markers in livers of HFD mice. Conditions: PDX i.p. 1 μg/mice/day for 8 weeks, FIG. 5C. Here is the method:
as §1

For the compound `CC/C=C\C[C@H](O)/C=C/C=C\C=C\[C@@H](O)C/C=C\C/C=C\CCC(=O)O` [PDX, 10S,17S-dihydroxy-docosa-4Z,7Z,11E,13Z,15E,19Z-hexaeonic acid], the “ORP150 expression suppressed in the liver by HFD” value in the assay on ORP150 is on record as “remarkably recovered”. Further, in the assay on adiponectin, the “level of adiponectin in blood serum” value is recorded as “increased”. The “liver ER stress markers IRE-1, eIF2α and CHOP” value in the assay on IRE-1, eIF2α and CHOP is listed as “inhibited”.
